Legend:
[1] = system: barnyardgrass; assay: Test C preemergence; type: in vivo, Echinochloa crus-galli; conditions: for Barnyardgrass plant response rating / Plant response rating, Barnyardgrass: preemergence; for Plant response rating, Barnyardgrass: scale 0 to 100, 0 = no effect, 100 = complete control; for Plant response rating (scale of 0 to 100), Barnyardgrass: Preemergence
Excerpt: (§1) Seeds of plant species selected from blackgrass (Alopecurus myosuroides), ryegrass, Italian (Italian ryegrass, Lolium multiflorum), wheat (winter wheat, Triticum aestivum), galium (catchweed bedstraw, Galium aparine), corn (Zea mays), crabgrass, large (large crabgrass, Digitaria sanguinalis), foxtail, giant (giant foxtail, Setaria faberii), johnsongrass (Sorghum halepense), lambsquarters (Chenopodium album), morningglory (Ipomoea coccinea), nutsedge, yellow (yellow nutsedge, Cyperus esculentus), pigweed (redroot pigweed, Amaranthus retroflexus), ragweed (common ragweed, Ambrosia elation), soybean (Glycine max), barnyardgrass (Echinochloa crus-galli), oilseed rape (Brassica napus), waterhemp (common waterhemp, Amaranthus rudis), oat, wild (wild oat, Avena fatua), kochia (Kochia scoparia), Surinam grass (Brachiaria decumbens), foxtail, green (green foxtail, Setaria viridis), goosegrass (Eleusine indica), bromegrass, downy (downy bromegrass, Bromus tectorum), nightshade (eastern black nightshade, Solanum ptycanthum), cocklebur (common cocklebur, Xanthium strumarium), cupgrass, woolly (woolly cupgrass, Eriochloa villosa), bermudagrass (Cynodon dactylon), sunflower, (common oilseed sunflower, Helianthus annuus), Russian thistle (Salsola kali), and velvetleaf (Abutilon theophrasti) were planted into a blend of loam soil and sand and treated preemergence with test chemicals formulated in a non-phytotoxic solvent mixture which included a surfactant.
(§2) At the same time, plants selected from these crop and weed species and also chickweed (common chickweed, Stellaria media), canarygrass (littleseed canarygrass, Phalaris minor), and deadnettle (henbit deadnettle, Lamium amplexicaule), were planted in pots containing Redi-Earth® planting medium (Scotts Company, 14111 Scottslawn Road, Marysville, Ohio 43041) comprising spaghnum peat moss, vermiculite, wetting agent and starter nutrients and treated with postemergence applications of test chemicals formulated in the same manner. Plants ranged in height from 2 to 18 cm (1- to 4-leaf stage) for postemergence treatments. Treated plants and controls were maintained in a greenhouse for 13 to 15 days, after which time all species were compared to controls and visually evaluated. Plant response ratings, summarized in Table C, are based on a scale of 0 to 100 where 0 is no effect and 100 is complete control. A dash (-) response means no test result.

[2] = system: morningglory; assay: Test A preemergence; type: in vivo, Ipomoea spp.; conditions: preemergence; for Morningglory plant response rating (0 to 100 scale): visual injury approx. 10 days after treatment
Method in brief: (§3)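 Visual injury ratings, 0 = no effect to 100 = complete control, taken about 10 days after treatment against untreated controls. Test chemicals, in a non-phytotoxic surfactant-containing solvent, were sprayed onto soil preemergence or onto one- to two-leaf plants (2–10 cm) postemergence, in loam–sand soil under greenhouse conditions.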

[3] = system: nutsedge, yellow; assay: Test C preemergence; type: in vivo, Cyperus esculentus; conditions: for Nutsedge, Yellow plant response rating / Plant response rating, Nutsedge, Yellow: preemergence; for Plant response rating, Nutsedge, Yellow: scale 0 to 100, 0 = no effect, 100 = complete control; for Plant response rating (scale of 0 to 100), Nutsedge, Yellow: Preemergence
Excerpt: as §1, §2

[4] = system: galium; assay: Test C postemergence; type: in vivo, Galium aparine; conditions: for Plant response rating (scale of 0 to 100 where 0 is no effect and 100 is complete control), Galium: Postemergence, 31 g ai/ha, visually evaluated after 13 to 15 days; for Galium plant response rating / Plant response rating, Galium: postemergence; for Galium plant response rating: 62 g ai/ha, scale 0 to 100
Excerpt: as §1, §2

[5] = system: pigweed; assay: Test A preemergence; type: in vivo, Amaranthus retroflexus; conditions: preemergence; for Pigweed plant response rating (0 to 100 scale): visual injury approx. 10 days after treatment
Method in brief: as §3

[6] = system: foxtail, giant; assay: Test C preemergence; type: in vivo, Setaria faberii; conditions: for Foxtail, Giant plant response rating / Plant response rating, Foxtail, Giant: preemergence; for Plant response rating, Foxtail, Giant: scale 0 to 100, 0 = no effect, 100 = complete control; for Plant response rating (scale of 0 to 100), Foxtail, Giant: Preemergence
Method in brief: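 Greenhouse pot test: preemergence application onto freshly seeded loam/sand mix, postemergence application onto seedlings (1–4 leaves, 2–18 cm) in peat-vermiculite substrate. Responses scored visually 13 to 15 days later relative to controls, where 0 means no effect and 100 means complete control; a dash indicates no result.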

[7] = 31 g ai/ha, visual rating, scale 0 to 100 (0 no effect, 100 complete control), 13 to 15 days
[8] = 62 g ai/ha, scale 0 to 100 (0 no effect, 100 complete control), 13 to 15 days
[9] = 250 g ai/ha, scale 0 to 100, 0 is no effect, 100 is complete control
[10] = 500 g ai/ha, visual injury after approx. 10 days, 0 to 100 scale (0 no effect, 100 complete control)
[11] = 250 g ai/ha, scale 0 to 100 (0 no effect, 100 complete control)
[12] = 125 g ai/ha, scale 0 to 100, 0 no effect, 100 complete control
[13] = 31 g ai/ha, scale 0 to 100 (0 no effect, 100 complete control), 13 to 15 days
[14] = 125 g ai/ha, visual injury, 0 to 100 scale, approx. 10 days
[15] = 125 g ai/ha, scale 0 to 100, 0 is no effect, 100 is complete control

CCCNC(=O)c1cc(OCC)n(Cc2ccnc(C(F)(F)F)c2)n1 [Compound 187]
Barnyardgrass plant response rating [1, 7]: 95 | Barnyardgrass plant response rating [1, 8]: 100 | Plant response rating, Barnyardgrass ([1]; 125 g ai/ha, 13 to 15 days): 100 | Barnyardgrass plant response rating [1, 9]: 100 | Morningglory plant response rating (0 to 100 scale) ([2]; 125 g ai/ha): 100 | Morningglory plant response rating [2, 10]: 100 | Nutsedge, Yellow plant response rating [3, 7]: 25 | Nutsedge, Yellow plant response rating [3, 8]: 60 | Plant response rating, Nutsedge, Yellow ([3]; 125 g ai/ha, 13 to 15 days): 85 | Nutsedge, Yellow plant response rating [3, 9]: 98 | Plant response rating (scale of 0 to 100 where 0 is no effect and 100 is complete control), Galium [4]: 60 | Galium plant response rating [4]: 80 | Plant response rating, Galium [4, 11]: 90 | Plant response rating, Galium [4, 12]: 85 | Pigweed plant response rating (0 to 100 scale) ([5]; 125 g ai/ha): 0 | Pigweed plant response rating [5, 10]: 0 | Foxtail, Giant plant response rating [6, 7]: 100 | Foxtail, Giant plant response rating [6, 8]: 100 | Plant response rating, Foxtail, Giant ([6]; 125 g ai/ha, 13 to 15 days): 100 | Foxtail, Giant plant response rating [6, 9]: 100

CCCc1cc(C(=O)NC2CC2)nn1Cc1cc(C(F)(F)F)nn1C [Compound 202]
Barnyardgrass plant response rating [1, 7]: 95 | Barnyardgrass plant response rating [1, 8]: 100 | Plant response rating, Barnyardgrass ([1]; 125 g ai/ha, 13 to 15 days): 100 | Barnyardgrass plant response rating [1, 9]: 100 | Morningglory plant response rating (0 to 100 scale) ([2]; 125 g ai/ha): 100 | Morningglory plant response rating [2, 10]: 100 | Nutsedge, Yellow plant response rating [3, 7]: 0 | Nutsedge, Yellow plant response rating [3, 8]: 5 | Plant response rating, Nutsedge, Yellow ([3]; 125 g ai/ha, 13 to 15 days): 30 | Nutsedge, Yellow plant response rating [3, 9]: 50 | Plant response rating (scale of 0 to 100 where 0 is no effect and 100 is complete control), Galium [4]: 65 | Galium plant response rating [4]: 85 | Plant response rating, Galium [4, 11]: 95 | Plant response rating, Galium [4, 12]: 90 | Pigweed plant response rating (0 to 100 scale) ([5]; 125 g ai/ha): 100 | Pigweed plant response rating [5, 10]: 100 | Foxtail, Giant plant response rating [6, 7]: 100 | Foxtail, Giant plant response rating [6, 8]: 100 | Plant response rating, Foxtail, Giant ([6]; 125 g ai/ha, 13 to 15 days): 100 | Foxtail, Giant plant response rating [6, 9]: 100

CCONC(=O)c1cc(CC)n(Cc2ccnc(OC(F)F)c2)n1 [Compound 131]
Plant response rating (scale of 0 to 100), Barnyardgrass ([1]; 250 g ai/ha): 100 | Barnyardgrass plant response rating [1, 13]: 55 | Barnyardgrass plant response rating [1, 8]: 95 | Plant response rating, Barnyardgrass ([1]; 125 g ai/ha, 13 to 15 days): 100 | Morningglory plant response rating [2, 14]: 100 | Morningglory plant response rating [2, 10]: 100 | Plant response rating (scale of 0 to 100), Nutsedge, Yellow ([3]; 250 g ai/ha): 90 | Nutsedge, Yellow plant response rating [3, 7]: 45 | Nutsedge, Yellow plant response rating [3, 8]: 50 | Plant response rating, Nutsedge, Yellow ([3]; 125 g ai/ha, 13 to 15 days): 95 | Plant response rating (scale of 0 to 100 where 0 is no effect and 100 is complete control), Galium [4]: 45 | Galium plant response rating [4]: 55 | Plant response rating, Galium [4, 11]: 70 | Plant response rating, Galium [4, 12]: 50 | Pigweed plant response rating [5, 14]: 100 | Pigweed plant response rating [5, 10]: 100 | Plant response rating (scale of 0 to 100), Foxtail, Giant ([6]; 250 g ai/ha): 100 | Foxtail, Giant plant response rating [6, 7]: 85 | Foxtail, Giant plant response rating [6, 8]: 100 | Plant response rating, Foxtail, Giant ([6]; 125 g ai/ha, 13 to 15 days): 100

O=C(NC1CC1)c1cc(CCCl)n(Cc2ccnc(C(F)(F)F)c2)n1 [Compound 144]
Barnyardgrass plant response rating [1, 7]: 75 | Barnyardgrass plant response rating [1, 8]: 98 | Plant response rating, Barnyardgrass ([1]; 125 g ai/ha, 13 to 15 days): 100 | Barnyardgrass plant response rating [1, 9]: 100 | Morningglory plant response rating (0 to 100 scale) ([2]; 125 g ai/ha): 80 | Morningglory plant response rating [2, 10]: 100 | Nutsedge, Yellow plant response rating [3, 7]: 0 | Nutsedge, Yellow plant response rating [3, 8]: 45 | Plant response rating, Nutsedge, Yellow ([3]; 125 g ai/ha, 13 to 15 days): 65 | Nutsedge, Yellow plant response rating [3, 9]: 90 | Plant response rating (scale of 0 to 100 where 0 is no effect and 100 is complete control), Galium [4]: 40 | Galium plant response rating [4]: 55 | Plant response rating, Galium [4, 11]: 85 | Plant response rating, Galium [4, 12]: 70 | Pigweed plant response rating (0 to 100 scale) ([5]; 125 g ai/ha): 100 | Pigweed plant response rating [5, 10]: 100 | Foxtail, Giant plant response rating [6, 7]: 75 | Foxtail, Giant plant response rating [6, 8]: 100 | Plant response rating, Foxtail, Giant ([6]; 125 g ai/ha, 13 to 15 days): 100 | Foxtail, Giant plant response rating [6, 9]: 100

CCCc1cc(C(=O)NC(C)C)nn1Cc1cc(C(F)(F)F)nn1C [Compound 201]
Barnyardgrass plant response rating [1, 7]: 98 | Barnyardgrass plant response rating [1, 8]: 100 | Plant response rating, Barnyardgrass ([1]; 125 g ai/ha, 13 to 15 days): 100 | Barnyardgrass plant response rating [1, 9]: 100 | Morningglory plant response rating (0 to 100 scale) ([2]; 125 g ai/ha): 100 | Morningglory plant response rating [2, 10]: 100 | Nutsedge, Yellow plant response rating [3, 7]: 5 | Nutsedge, Yellow plant response rating [3, 8]: 20 | Plant response rating, Nutsedge, Yellow ([3]; 125 g ai/ha, 13 to 15 days): 55 | Nutsedge, Yellow plant response rating [3, 9]: 80 | Plant response rating (scale of 0 to 100 where 0 is no effect and 100 is complete control), Galium [4]: 60 | Galium plant response rating [4]: 80 | Plant response rating, Galium [4, 11]: 95 | Plant response rating, Galium [4, 12]: 60 | Pigweed plant response rating (0 to 100 scale) ([5]; 125 g ai/ha): 100 | Pigweed plant response rating [5, 10]: 100 | Foxtail, Giant plant response rating [6, 7]: 100 | Foxtail, Giant plant response rating [6, 8]: 95 | Plant response rating, Foxtail, Giant ([6]; 125 g ai/ha, 13 to 15 days): 100 | Foxtail, Giant plant response rating [6, 9]: 100

CCc1cc(-c2ccc(C(F)(F)F)cc2)nn1Cc1ccnc(C(F)(F)F)c1 [Compound 110]
Plant response rating (scale of 0 to 100), Barnyardgrass ([1]; 250 g ai/ha): 90 | Barnyardgrass plant response rating [1, 13]: 25 | Barnyardgrass plant response rating [1, 8]: 30 | Barnyardgrass plant response rating [1, 15]: 65 | Morningglory plant response rating [2, 14]: 90 | Morningglory plant response rating [2, 10]: 100 | Plant response rating (scale of 0 to 100), Nutsedge, Yellow ([3]; 250 g ai/ha): 5 | Nutsedge, Yellow plant response rating [3, 8]: 5 | Nutsedge, Yellow plant response rating [3, 15]: 5 | Plant response rating (scale of 0 to 100 where 0 is no effect and 100 is complete control), Galium [4]: 60 | Galium plant response rating [4]: 60 | Plant response rating, Galium [4, 12]: 90 | Pigweed plant response rating [5, 14]: 100 | Pigweed plant response rating [5, 10]: 100 | Plant response rating (scale of 0 to 100), Foxtail, Giant ([6]; 250 g ai/ha): 100 | Foxtail, Giant plant response rating [6, 7]: 98 | Foxtail, Giant plant response rating [6, 8]: 98 | Foxtail, Giant plant response rating [6, 15]: 100

From patent US20150105252A1, “SUBSTITUTED PYRAZOLES AS HERBICIDES” (E I DU PONT DE NEMOURS AND COMPANY, priority 2013, published 2015)
